Test results as given in US20020137929A1, “1 - (3-heterocyclylphenyl) isothiourea, -isourea, -guanidine and -amidine herbicidal agents” (Intellectual Property Department, BASF Aktiengesellschaft, priority 1998, published 2002).

What was measured:
CASOB (Sicklepod) = assay: Postemergence herbicidal evaluation; type: in vivo, Cassia obtusifolia; settings: postemergence
How it was run: (§1)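 Visual 0-9 injury score (stand, vigor, malformation, size, chlorosis, appearance vs untreated) taken four to five weeks post-spray, averaged across repeat tests. Test plants about two weeks old; foliar spray of acetone/water (1:1) with 0.5% surfactant delivering ~0.0156-0.500 kg active/ha.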

[1] = test system: CHEAL (Lambsquarters, Common); assay: Postemergence herbicidal evaluation; type: in vivo, Chenopodium album; settings: postemergence
How it was run: as §1

GALAP (Galium) = assay: Postemergence herbicidal evaluation; type: in vivo, Galium aparine; settings: postemergence
How it was run: as §1

ORYSAT (Rice, Tebonnet) [2] = assay: Postemergence herbicidal evaluation; type: in vivo, Oryza sativa, (L.) Tebonnet; settings: postemergence
How it was run: as §1

ZEAMX (Corn, Field) = assay: Postemergence herbicidal evaluation; type: in vivo, Zea mays; settings: postemergence
How it was run: as §1

AMBEL (Ragweed, Common) = assay: Preemergence herbicidal evaluation; type: in vivo, Ambrosia artemisifolia; settings: preemergence, rated 4-5 weeks after treatment, 0-9 scale
How it was run: (§2)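 Steps: mix seeds into potting soil; plant atop ~1 inch soil; spray compound in aqueous acetone (~0.0156-0.500 kg/ha equivalent); maintain in greenhouse with watering; rate visually 0-9 versus control at 4-5 weeks.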

SETVI (Foxtail, Green) = assay: Preemergence herbicidal evaluation; type: in vivo, Setaria viridis; settings: preemergence, rated 4-5 weeks after treatment, 0-9 scale
How it was run: as §2

[3] = test system: GLXMAW (Soybean, Williams); assay: Preemergence herbicidal evaluation; type: in vivo, Glycine max, (L.) Merr. cv Williams; settings: preemergence, rated 4-5 weeks after treatment, 0-9 scale
How it was run: as §2

ORYSAT (Rice, Tebonnet) [4] = assay: Preemergence herbicidal evaluation; type: in vivo, Oryza sativa, (L.) Tebonnet; settings: preemergence, rated 4-5 weeks after treatment, 0-9 scale
How it was run: as §2

CYPSE (Flatsedge) [5] = assay: Preemergence weed control under flooded paddy conditions; type: in vivo, Cyperus serotinus; settings: rated 3-4 weeks after treatment
How it was run: (§3)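 Herbicidal effect is scored visually on a 0-9 scale against an untreated control, three to four weeks after compounds are pipetted into the flood water (1.5 to 3 cm deep) over seeds planted in silt loam at 0.5 cm depth. Rates: about 0.0313 to 0.500 kg/ha.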

MOOVA (Monochoria) = assay: as above; type: in vivo, Monochoria vaginalis; settings: rated 3-4 weeks after treatment
How it was run: as §3

CYPIR (Rice Flatsedge) = assay: Postemergence weed control under flooded paddy conditions; type: in vivo, Cyperus iria; settings: postemergence weeds, rated 3 to 4 weeks after treatment
How it was run: (§4)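 Injury ratings (0–9 scale covering stand, vigor, malformation, size, chlorosis and overall appearance versus control) were made three to four weeks after treatment. Test material, about 0.0313 to 0.500 kg/ha a.i. in 50/50 v/v aqueous/acetone, was added to flood water 1.5 to 3 cm deep over 3 to 5 cm weeds and 1.5 to 2.5 leaf rice.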

CYPSE (Flatsedge) [6] = assay: as above; type: in vivo, Cyperus serotinus; settings: postemergence weeds, rated 3 to 4 weeks after treatment
How it was run: as §4

[7] = test system: SAGPY (Arrowhead (Pygmaea)); assay: as above; type: in vivo, Sagittaria pygmaea; settings: postemergence weeds, rated 3 to 4 weeks after treatment
How it was run: as §4

C#CCOC(=O)CC1SC(=Nc2cc(-n3c(=O)cc(C(F)(F)F)n(C)c3=O)c(F)cc2Cl)N(C)C1=O (stereo not shown) [Compound 90, 2-Propynyl 2-{{2-chloro-5-[3,6-dihydro-3-methyl-2,6-dioxo-4-(trifluoromethyl)-1(2H)-pyrimidinyl]-4-fluorophenyl}imino}-3-methyl-4-oxo-5-thiazolidineacetate]
6.5: ORYSAT herbicidal rating (ORYSAT (Rice, Tebonnet) [2]; rate 0.0315 kg/ha) | ORYSAT herbicidal rating (ORYSAT (Rice, Tebonnet) [2]; rate 0.0630 kg/ha)
1.0: Herbicidal rating CYPIR (CYPIR (Rice Flatsedge); Rate 0.1250 kg/ha)
6.0: Herbicidal rating SAGPY ([7]; Rate 0.0625 kg/ha)
8.5: ZEAMX herbicidal rating (ZEAMX (Corn, Field); rate 0.0315 kg/ha)
2.0: CASOB herbicidal rating (CASOB (Sicklepod); rate 0.0158 kg/ha) | GLXMAW rating ([3]; 0.0625 kg/ha) | ORYSAT rating (ORYSAT (Rice, Tebonnet) [4]; 0.1250 kg/ha)
3.0: CASOB herbicidal rating (CASOB (Sicklepod); rate 0.0315 kg/ha) | AMBEL rating (AMBEL (Ragweed, Common); 0.0625 kg/ha) | SETVI rating (SETVI (Foxtail, Green); 0.0625 kg/ha) | CYPSE herbicidal effect rating (CYPSE (Flatsedge) [5]; 0.2500 kg/ha) | Herbicidal rating CYPIR (CYPIR (Rice Flatsedge); Rate 0.2500 kg/ha) | Herbicidal rating CYPSE (CYPSE (Flatsedge) [6]; Rate 0.2500 kg/ha)
8.0: ZEAMX herbicidal rating (ZEAMX (Corn, Field); rate 0.0158 kg/ha)
7.0: CHEAL herbicidal rating ([1]; rate 0.0315 kg/ha) | GALAP herbicidal rating (GALAP (Galium); rate 0.0315 kg/ha) | GALAP herbicidal rating (GALAP (Galium); rate 0.0630 kg/ha) | GLXMAW rating ([3]; 0.1250 kg/ha)
0.0: AMBEL rating (AMBEL (Ragweed, Common); 0.0313 kg/ha) | SETVI rating (SETVI (Foxtail, Green); 0.0313 kg/ha) | GLXMAW rating ([3]; 0.0313 kg/ha) | ORYSAT rating (ORYSAT (Rice, Tebonnet) [4]; 0.0313 kg/ha) | ORYSAT rating (ORYSAT (Rice, Tebonnet) [4]; 0.0625 kg/ha) | CYPSE herbicidal effect rating (CYPSE (Flatsedge) [5]; 0.0313 kg/ha) | CYPSE herbicidal effect rating (CYPSE (Flatsedge) [5]; 0.0625 kg/ha) | CYPSE herbicidal effect rating (CYPSE (Flatsedge) [5]; 0.1250 kg/ha) | Herbicidal rating CYPIR (CYPIR (Rice Flatsedge); Rate 0.0313 kg/ha) | Herbicidal rating CYPIR (CYPIR (Rice Flatsedge); Rate 0.0625 kg/ha) | Herbicidal rating CYPSE (CYPSE (Flatsedge) [6]; Rate 0.0313 kg/ha) | Herbicidal rating CYPSE (CYPSE (Flatsedge) [6]; Rate 0.0625 kg/ha) | Herbicidal rating CYPSE (CYPSE (Flatsedge) [6]; Rate 0.1250 kg/ha)
5.0: CHEAL herbicidal rating ([1]; rate 0.0158 kg/ha) | GALAP herbicidal rating (GALAP (Galium); rate 0.0158 kg/ha)
4.0: CASOB herbicidal rating (CASOB (Sicklepod); rate 0.0630 kg/ha) | ORYSAT herbicidal rating (ORYSAT (Rice, Tebonnet) [2]; rate 0.0158 kg/ha) | Herbicidal rating SAGPY ([7]; Rate 0.0313 kg/ha)
9.0: CHEAL herbicidal rating ([1]; rate 0.0630 kg/ha) | ZEAMX herbicidal rating (ZEAMX (Corn, Field); rate 0.0630 kg/ha) | AMBEL rating (AMBEL (Ragweed, Common); 0.1250 kg/ha) | AMBEL rating (AMBEL (Ragweed, Common); 0.2500 kg/ha) | SETVI rating (SETVI (Foxtail, Green); 0.1250 kg/ha) | SETVI rating (SETVI (Foxtail, Green); 0.2500 kg/ha) | GLXMAW rating ([3]; 0.2500 kg/ha) | ORYSAT rating (ORYSAT (Rice, Tebonnet) [4]; 0.2500 kg/ha) | MOOVA herbicidal effect rating (MOOVA (Monochoria); 0.0313 kg/ha) | MOOVA herbicidal effect rating (MOOVA (Monochoria); 0.0625 kg/ha) | MOOVA herbicidal effect rating (MOOVA (Monochoria); 0.1250 kg/ha) | MOOVA herbicidal effect rating (MOOVA (Monochoria); 0.2500 kg/ha) | Herbicidal rating SAGPY ([7]; Rate 0.1250 kg/ha) | Herbicidal rating SAGPY ([7]; Rate 0.2500 kg/ha)

CN1C(=O)C(CC(=O)Nc2ccccc2)SC1=Nc1cc(-n2c(=O)cc(C(F)(F)F)n(C)c2=O)c(F)cc1Cl (stereo not shown) [Compound 91, 2-{{2-Chloro-5-[3,6-dihydro-3-methyl-2,6-dioxo-4-(trifluoromethyl)-1(2H)-pyrimidinyl]-4-fluorophenyl}imino}-3-methyl-4-oxo-5-thiazolidineacetanilide]
0.0: CASOB herbicidal rating (CASOB (Sicklepod); rate 0.0158 kg/ha) | CASOB herbicidal rating (CASOB (Sicklepod); rate 0.0315 kg/ha) | CHEAL herbicidal rating ([1]; rate 0.0158 kg/ha) | GALAP herbicidal rating (GALAP (Galium); rate 0.0158 kg/ha) | GALAP herbicidal rating (GALAP (Galium); rate 0.0315 kg/ha) | GALAP herbicidal rating (GALAP (Galium); rate 0.0630 kg/ha) | AMBEL rating (AMBEL (Ragweed, Common); 0.1250 kg/ha) | AMBEL rating (AMBEL (Ragweed, Common); 0.2500 kg/ha) | SETVI rating (SETVI (Foxtail, Green); 0.1250 kg/ha) | SETVI rating (SETVI (Foxtail, Green); 0.2500 kg/ha) | GLXMAW rating ([3]; 0.1250 kg/ha) | GLXMAW rating ([3]; 0.2500 kg/ha) | ORYSAT rating (ORYSAT (Rice, Tebonnet) [4]; 0.1250 kg/ha) | ORYSAT rating (ORYSAT (Rice, Tebonnet) [4]; 0.2500 kg/ha) | CYPSE herbicidal effect rating (CYPSE (Flatsedge) [5]; 0.0313 kg/ha) | CYPSE herbicidal effect rating (CYPSE (Flatsedge) [5]; 0.0625 kg/ha) | CYPSE herbicidal effect rating (CYPSE (Flatsedge) [5]; 0.1250 kg/ha) | CYPSE herbicidal effect rating (CYPSE (Flatsedge) [5]; 0.2500 kg/ha) | Herbicidal rating CYPIR (CYPIR (Rice Flatsedge); Rate 0.0313 kg/ha) | Herbicidal rating CYPIR (CYPIR (Rice Flatsedge); Rate 0.0625 kg/ha) | Herbicidal rating CYPIR (CYPIR (Rice Flatsedge); Rate 0.1250 kg/ha) | Herbicidal rating CYPIR (CYPIR (Rice Flatsedge); Rate 0.2500 kg/ha) | Herbicidal rating CYPSE (CYPSE (Flatsedge) [6]; Rate 0.0313 kg/ha) | Herbicidal rating CYPSE (CYPSE (Flatsedge) [6]; Rate 0.0625 kg/ha) | Herbicidal rating CYPSE (CYPSE (Flatsedge) [6]; Rate 0.1250 kg/ha) | Herbicidal rating CYPSE (CYPSE (Flatsedge) [6]; Rate 0.2500 kg/ha) | Herbicidal rating SAGPY ([7]; Rate 0.0313 kg/ha) | Herbicidal rating SAGPY ([7]; Rate 0.0625 kg/ha) | Herbicidal rating SAGPY ([7]; Rate 0.1250 kg/ha) | Herbicidal rating SAGPY ([7]; Rate 0.2500 kg/ha)
5.0: ZEAMX herbicidal rating (ZEAMX (Corn, Field); rate 0.0630 kg/ha)
2.0: ORYSAT herbicidal rating (ORYSAT (Rice, Tebonnet) [2]; rate 0.0630 kg/ha)
9.0: MOOVA herbicidal effect rating (MOOVA (Monochoria); 0.0313 kg/ha) | MOOVA herbicidal effect rating (MOOVA (Monochoria); 0.0625 kg/ha) | MOOVA herbicidal effect rating (MOOVA (Monochoria); 0.1250 kg/ha) | MOOVA herbicidal effect rating (MOOVA (Monochoria); 0.2500 kg/ha)
4.0: CASOB herbicidal rating (CASOB (Sicklepod); rate 0.0630 kg/ha) | ZEAMX herbicidal rating (ZEAMX (Corn, Field); rate 0.0158 kg/ha) | ZEAMX herbicidal rating (ZEAMX (Corn, Field); rate 0.0315 kg/ha)
3.0: CHEAL herbicidal rating ([1]; rate 0.0315 kg/ha) | CHEAL herbicidal rating ([1]; rate 0.0630 kg/ha)
1.0: ORYSAT herbicidal rating (ORYSAT (Rice, Tebonnet) [2]; rate 0.0158 kg/ha) | ORYSAT herbicidal rating (ORYSAT (Rice, Tebonnet) [2]; rate 0.0315 kg/ha)
